Test system: WT (TRPM2+/+) and TRPM2 knockout (TRPM2-/-) mice, tMCAO
Assay: tMCAO in WT and TRPM2 knockout mice given autophagy inhibitor
Format: in vivo, mouse
Conditions: FIG. 12
Excerpt: After isoflurane inhalation gas anesthesia of 22-25 g male WT mice (TRPM2+/+) and TRPM2 knockout (TRPM2−/−) mice, the fiber-optic probes of laser Doppler flowmeter were fixed to the skull of the animals with glue and used to monitor the cerebral blood flow of the middle cerebral artery (MCA) supplying cortex.
The mice were fixed in the supine position, and the middle of the neck was dehaired and routinely sterilized with 75% alcohol. […] Only animals whose blood flow values decreased to 20% of the basic value were selected according to the blood flow data monitored by the flowmeter. […]
The mice were decapitated 24 h after ischemia-reperfusion, the coronal planes of the brains were cut into brain slices of about 2 mm thickness uniformly. […] The processed brain slices were photographed using a macro camera, and Image J image analysis software was used to calculate and count the cerebral infarct volume, and the measured results are shown in FIG. 11. […]

Cn1cnc(N)c2ncnc1-2 [Compound 3-MA]
cerebroprotective effect of reduced TRPM2 levels during cerebral ischemia reperfusion: reversed

From patent US20240228487A1, “FUSED HETEROCYCLIC COMPOUND AND APPLICATION THEREOF, PHARMACEUTICAL COMPOSITIONS CONTAINING SAME AND APPLICATION THEREOF” (ZHEJIANG UNIVERSITY, priority 2021, published 2024)
